Results as given in patent publication US8946439B2, “Amide compounds, compositions and uses thereof” (Evotec AG, priority 2008, dated 2015).

Legend:
hP2X3 = target: T1, hP2X3 (Homo sapiens, UniProt P56373); test: Calcium uptake assay (P2X antagonist assay), P2X3 homomer; format: cell-based; conditions: calcium uptake assay, hP2X3; read-out: IC50 hP2X3 (nM), Ca Influx
T1 construct: expressed in transfected cells; host or cells: e.g. HEK293 or 1321N1
T1 sequence (P56373 1-397): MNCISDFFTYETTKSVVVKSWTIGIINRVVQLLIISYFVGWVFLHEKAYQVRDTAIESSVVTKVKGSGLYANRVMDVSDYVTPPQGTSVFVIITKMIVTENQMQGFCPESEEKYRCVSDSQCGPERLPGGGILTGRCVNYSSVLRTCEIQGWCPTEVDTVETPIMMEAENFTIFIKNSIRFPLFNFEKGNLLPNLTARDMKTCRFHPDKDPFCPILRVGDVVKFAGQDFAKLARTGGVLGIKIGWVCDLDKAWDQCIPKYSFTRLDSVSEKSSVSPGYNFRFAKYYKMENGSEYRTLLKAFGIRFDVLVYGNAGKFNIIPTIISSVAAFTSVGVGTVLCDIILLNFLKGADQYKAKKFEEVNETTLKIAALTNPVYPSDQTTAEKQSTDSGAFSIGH
Text: (§1) The human P2X2/3 chimera clone is created as described by Neelands et al, and then cloned into an expression vector as above. Receptors are expressed in cells (e.g., HEK293 or 1321N1 (obtained from the ECACC)) via transient transfection using standard lipid mediated transfection, or by creation of stable transfectants for each receptor. For expression of the P2X2/3 heteromeric receptor, the P2X3 expression vector is stably transfected into a cell line already stably expressing P2X2. P2X2/3 heteromer function is isolated using pharmacological methods. Cell lines are maintained in DMEM+5% Glutamax, the appropriate level of selective antibiotic, and 10% heat inactivated FBS.
(§2) Functional activity of compounds at the P2X receptor is determined by measuring their ability to inhibit agonist-induced calcium influx. Compounds are tested for antagonist activity against the P2X2/3 chimera, the P2X3 homomer, or the P2X2/3 heteromer. At the start of each screening day, the agonist EC50 is determined. Compound % inhibition or IC50s are subsequently determined using a predetermined agonist concentration (EC50-90 depending on cell line) as a stimulus. The agonists used are αβMeATP, ATP, or other ATP analogs. Compounds may be tested at concentrations ranging from 1 pM to 10 μM.
(§3) To test for antagonist activity, cells expressing the appropriate receptor are seeded onto 96 or 384 well plates 18-24 hours prior to assay. […] Plates are incubated at 37° C. and then equilibrated at room temperature. Antagonism of agonist-induced calcium influx is measured using a fluorescent imaging plate reader (e.g. FLIPR^TETRA, Molecular Devices, Sunnyvale, Calif.). The assay comprises two stages: a pre-treatment phase followed by a treatment phase. Compounds may be tested as follows: For the pre-treatment phase, 50 μL of 3× concentration of test compound in HBSS is added to cells containing […], of dye loading media to achieve a final concentration of 1× test compound. For the treatment phase, at a set interval after pre-treatment (1-30 minutes), 50 μL of 1× test compound plus 4× agonist solution is added, resulting in a final concentration of 1× compound and 1× agonist. […] Responses are measured as (peak fluorescence after agonist addition) minus (baseline fluorescence prior to treatment). Percent inhibition is calculated as follows:
(§4) [formula] IC50 values are determined by analyzing dose response data in a 4 parameter logistic fit using GraphPad Prizm.

hP2X2/3H = target: T2, hP2X2/3H (Homo sapiens, UniProt P56373+Q9UBL9); test: Calcium uptake assay (P2X antagonist assay), P2X2/3 heteromer; format: cell-based; conditions: calcium uptake assay, hP2X2/3H; read-out: IC50 hP2X2/3H (nM), Ca Influx
T2 construct: expressed in transfected cells; host or cells: e.g. HEK293 or 1321N1
T2 sequence (Q9UBL9 1-471): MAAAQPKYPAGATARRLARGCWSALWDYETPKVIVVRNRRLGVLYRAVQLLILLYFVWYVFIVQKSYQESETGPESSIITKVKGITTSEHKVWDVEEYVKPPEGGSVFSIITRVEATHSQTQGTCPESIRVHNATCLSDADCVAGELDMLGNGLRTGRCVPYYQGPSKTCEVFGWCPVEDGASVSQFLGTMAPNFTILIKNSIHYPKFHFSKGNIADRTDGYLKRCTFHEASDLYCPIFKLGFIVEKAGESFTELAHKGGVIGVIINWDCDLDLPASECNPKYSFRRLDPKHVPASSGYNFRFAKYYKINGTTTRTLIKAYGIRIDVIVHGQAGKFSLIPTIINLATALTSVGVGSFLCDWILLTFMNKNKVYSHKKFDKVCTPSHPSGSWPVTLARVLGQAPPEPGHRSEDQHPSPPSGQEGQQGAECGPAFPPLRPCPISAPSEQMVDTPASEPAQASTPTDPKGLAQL
T2 sequence (P56373 1-397): T1 sequence (P56373 1-397)
Text: as §1, §2, §3, §4

Structure (SMILES)	IC50 (hP2X3) [nM]	IC50 (hP2X2/3H) [nM]
Cc1ccc(-c2cc(C(=O)N[C@H](C)c3ccc(C(F)(F)F)nc3)cc(S(C)(=O)=O)c2)cc1 [Compound 35]	< 100	< 100
Cc1ncc(CNC(=O)c2cc(C(=O)N3CCCC3)cc(-c3ccc(F)cc3)c2)cn1 [Compound 38]	100 to 500	> 1000
Cc1ccc(-c2cc(C(=O)NCc3cnc(C)nc3)cc(C(=O)N3CCCC3)c2)c(C#N)c1 [Compound 39, 2′-Cyano-4′-methyl-N-((2-methylpyrimidin-5-yl)methyl)-5-(pyrrolidine-1-carbonyl)biphenyl-3-carboxamide]	< 100	< 100
Cc1ccc(-c2cc(C(=O)NC(C)c3ccc(Cl)c(S(C)(=O)=O)c3)cc(C(=O)N3CCCC3)c2)cc1 (stereo not shown) [Compound 45, N-(1-(4-Chloro-3-(methylsulfonyl)phenyl)ethyl)-4′-methyl-5-(pyrrolidine-1-carbonyl)biphenyl-3-carboxamide]	100 to 500	< 100
Cc1ccc(-c2cc(C(=O)N[C@H](C)c3ccc(C(F)(F)F)nc3)cc(C(=O)N3CCCC3)c2)cc1 [Compound 46]	100 to 500	< 100
Cc1ccc(-c2cc(C(=O)NCc3ccc(C(F)(F)F)nc3)cc(C(=O)N3CCCC3)c2)cc1 [Compound 47]	100 to 500	100 to 500
COc1ncc(CNC(=O)c2cc(C(=O)N3CCCC3)cc(-c3ccc(C)cc3)c2)cn1 [Compound 48]	< 100	< 100
Cc1ccc(-c2cc(C(=O)NCc3ccc4cccnc4c3)cc(C(=O)N3CCCC3)c2)cc1 [Compound 49, 4′-Methyl-5-(pyrrolidine-1-carbonyl)-N-(quinolin-7-ylmethyl)biphenyl-3-carboxamide]	100 to 500	100 to 500
Cc1ccc(-c2cc(C(=O)NCc3ccn4ccnc4c3)cc(C(=O)N3CCCC3)c2)cc1 [Compound 50]	< 100	< 100
Cc1ccc(-c2cc(C(=O)NCc3cnc(C)cn3)cc(C(=O)N3CCCC3)c2)cc1 [Compound 51]	< 100	< 100
Cc1ccc(-c2cc(C(=O)N[C@H](C)c3cnc(C)nc3)cc(C(=O)N3CCCC3)c2)cc1 [Compound 52]	< 100	< 100
Cc1ncc(CNC(=O)c2cc(C(=O)N3CCCC3)cc(-c3ccc(F)cc3F)c2)cn1 [Compound 53]	100 to 500	> 1000
Cc1ncc(CNC(=O)c2cc(C(=O)N3CCCC3)cc(-c3ccc(C(F)(F)F)cc3)c2)cn1 [Compound 54]	> 1000	> 1000
Cc1ccc(-c2cc(C(=O)NCc3ccc(C)nc3)cc(C(=O)N3CCCC3)c2)cc1 [Compound 60]	< 100	< 100
Cc1ccc(-c2cc(C(=O)NCc3ccc(C)nc3)cc(C(=O)N3CCCC3)c2)c(C#N)c1 [Compound 61]	< 100	< 100
Cc1ccc(-c2cc(C(=O)NCc3ccc(C(F)(F)F)nc3)cc(C(=O)N3CCCC3)c2)c(C#N)c1 [Compound 62, 2′-Cyano-4′-methyl-5-(pyrrolidine-1-carbonyl)-N-((6-(trifluoromethyl)pyridin-3-yl)methyl)biphenyl-3-carboxamide]	< 100	100 to 500
Cc1ccc(-c2cc(C(=O)NCc3ccc(C)nc3)cc(C(=O)N3CC(O)C3)c2)c(C#N)c1 [Compound 63, 2′-Cyano-5-(3-hydroxyazetidine-1-carbonyl)-4′-methyl-N-((6-methylpyridin-3-yl)methyl)biphenyl-3-carboxamide]	< 100	< 100
Cc1ccc(-c2cc(C(=O)NCc3ccc(C(F)(F)F)nc3)cc(C(=O)N3CC(O)C3)c2)c(C#N)c1 [Compound 64]	< 100	< 100
Cc1ccc(-c2cc(S(=O)(=O)N3CCCC3)cc(C(=O)N[C@H](C)c3cnc(C)nc3)c2C)cc1 [Compound 65, (R)-2,4′-Dimethyl-N-(1-(2-methylpyrimidin-5-yl)ethyl)-5-(pyrrolidin-1-ylsulfonyl)biphenyl-3-carboxamide]	100 to 500	> 1000
Cc1ccc(-c2cc(S(=O)(=O)N3CCCC3)cc(C(=O)NCc3ccc(Cl)c(S(C)(=O)=O)c3)c2C)cc1 [Compound 66]	100 to 500	> 1000

The next lines start with the values.

IC50 (hP2X3) [nM]	IC50 (hP2X2/3H) [nM]	Structure (SMILES)
< 100	< 100	Cc1ccc(-c2cc(C(=O)NCc3cnc(C)nc3)cc(C(=O)N3CCCC3C(F)(F)F)c2)cc1 (stereo not shown) [Compound 33]
< 100	< 100	Cc1ccc(-c2cc(C(=O)NCc3cnc(C)nc3)cc(C(=O)N3CCC(F)(F)C3)c2)cc1 [Compound 34, 5-(3,3-Difluoropyrrolidine-1-carbonyl)-4′-methyl-N-((2-methylpyrimidin-5-yl)methyl)biphenyl-3-carboxamide]
< 100	< 100	Cc1ccc(-c2cc(C(=O)NCc3ccc(C)c(S(C)(=O)=O)c3)cc(S(C)(=O)=O)c2)cc1 [Compound 36]
100 to 500	100 to 500	Cc1ccc(-c2cc(C(=O)NCc3ccc(C(F)(F)F)nc3)cc(S(C)(=O)=O)c2)cc1 [Compound 37, 4′-Methyl-5-(methylsulfonyl)-N-((6-(trifluoromethyl)pyridin-3-yl)methyl)biphenyl-3-carboxamide]
< 100	100 to 500	Cc1ncc(CNC(=O)c2cc(C(=O)N3CCCC3)cc(-c3ccc(Cl)cc3)c2)cn1 [Compound 40]
< 100	< 100	CCCS(=O)(=O)c1cc(C(=O)NCc2ccc(C)c(S(C)(=O)=O)c2)cc(-c2ccc(C)cc2)c1 [Compound 41]
< 100	> 1000	CCCS(=O)(=O)c1cc(C(=O)N[C@@H](C)CO)cc(-c2ccc(C)cc2)c1 [Compound 42]
< 100	< 100	CCCS(=O)(=O)c1cc(C(=O)NCc2cnc(C)nc2)cc(-c2ccc(C)cc2)c1 [Compound 43]
100 to 500	100 to 500	CCCS(=O)(=O)c1cc(C(=O)NCc2ccc(C(F)(F)F)nc2)cc(-c2ccc(C)cc2)c1 [Compound 44]
< 100	< 100	CCCS(=O)(=O)c1cc(C(=O)N[C@H](C)c2cnc(C)nc2)cc(-c2ccc(C)cc2)c1 [Compound 55]
< 100	< 100	CCCS(=O)(=O)c1cc(C(=O)NCc2ccc(C)nc2)cc(-c2ccc(C)cc2)c1 [Compound 56]
< 100	< 100	CCCS(=O)(=O)c1cc(C(=O)NCc2ccn3ccnc3c2)cc(-c2ccc(C)cc2)c1 [Compound 57]
< 100	< 100	Cc1ccc(-c2cc(C(=O)NCc3ccc(C)nc3)cc(S(C)(=O)=O)c2)cc1 [Compound 58, 4′-Methyl-N-((6-methylpyridin-3-yl)methyl)-5-(methylsulfonyl)biphenyl-3-carboxamide]
< 100	100 to 500	Cc1ccc(-c2cc(C(=O)NCc3cnc(C)nc3)cc(S(C)(=O)=O)c2)c(C#N)c1 [Compound 59]
< 100	> 1000	Cc1ccc(-c2cc(S(=O)(=O)N3CCCC3)cc(C(=O)NCc3cnc(C)nc3)c2C)cc1 [Compound 67, 2,4′-Dimethyl-N-((2-methylpyrimidin-5-yl)methyl)-5-(pyrrolidin-1-ylsulfonyl)biphenyl-3-carboxamide]
